Data published in PMC9463489 (Journal of Pharmaceutical Analysis, 2022).
Several values for one entry are separate records, joined by “and”; a condition that tells them apart may be missing. Identical values can stand only once.

What was measured:
[1] = molecular target: T1, human pancreatic lipase (hPL) (Homo sapiens, UniProt P16233); test: fluorescence-based hPL inhibition assay; type: biochemical; conditions: 4-MUO 5 μM, 37 °C, 20 min; for pIC50: hPL-catalyzed 4-MUO hydrolysis; for IC50: pIC50, hPL-catalyzed 4-MUO hydrolysis
T1 sequence (P16233 17-465): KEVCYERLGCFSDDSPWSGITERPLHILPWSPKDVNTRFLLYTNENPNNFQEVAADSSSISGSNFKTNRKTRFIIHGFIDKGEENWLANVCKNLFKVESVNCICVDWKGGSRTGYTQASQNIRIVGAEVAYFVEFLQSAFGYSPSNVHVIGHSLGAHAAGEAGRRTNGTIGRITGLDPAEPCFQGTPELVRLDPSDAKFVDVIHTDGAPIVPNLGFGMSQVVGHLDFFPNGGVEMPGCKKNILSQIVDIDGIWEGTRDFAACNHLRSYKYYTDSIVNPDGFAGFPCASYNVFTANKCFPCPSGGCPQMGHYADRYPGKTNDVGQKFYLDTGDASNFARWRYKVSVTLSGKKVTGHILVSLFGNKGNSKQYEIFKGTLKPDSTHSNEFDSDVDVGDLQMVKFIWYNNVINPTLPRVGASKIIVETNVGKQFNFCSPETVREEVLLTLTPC

[2] = molecular target: T1, human pancreatic lipase (hPL); test: inhibition kinetics against hPL-catalyzed 4-MUO hydrolysis; type: biochemical; conditions: for Inhibition mode: Lineweaver-Burk and secondary plots
α-glucosidase = conditions: ref [50], [51], [52]; cited from earlier work

| IC50 [1] | Compound | also measured |
| --- | --- | --- |
| > 100000 nM | Oc1cc(O)c2c(c1)O[C@H](c1ccc(O)c(O)c1)[C@H](O)C2 [Epicatechin, epicatechin] |  |
| 25.7 nM | O=C(OC[C@H]1O[C@@H](OC(=O)c2cc(O)c(O)c(O)c2)[C@H](OC(=O)c2cc(O)c(O)c(O)c2)[C@@H](OC(=O)c2cc(O)c(O)c(O)c2)[C@@H]1OC(=O)c1cc(O)c(O)c(O)c1)c1cc(O)c(O)c(O)c1 [PGG, 1,2,3,4,6-penta-O-galloyl-β-D-glucopyranose] | Inhibition mode [2]: non-competitive; Ki ([2]; inhibition constant (Ki)): 12 nM and < 100 nM |
| > 100000 nM | C[C@@H]1O[C@@H](Oc2cc(O)c3c(=O)c(O)c(-c4ccc(O)cc4)oc3c2O)[C@H](O)[C@H](O)[C@H]1O [Rhodionin, rhodionin] |  |
| 162 nM | O=C(O[C@@H]1Cc2c(O)cc(O)cc2O[C@@H]1c1ccc(O)c(O)c1)c1cc(O)c(O)c(O)c1 [ECG, epicatechin gallate] | inhibitory effects against α-glucosidase (α-glucosidase): strong inhibitory effects |
| 776 nM | O=c1cc(-c2ccc(O)c(O)c2)oc2cc(O)cc(O)c12 [Luteolin, luteolin] | inhibitory effects against α-glucosidase (α-glucosidase): strong inhibitory effects |

The remaining lines, values behind:

| Compound | IC50 [1] | also measured |
| --- | --- | --- |
| O=c1cc(-c2ccc(O)c(O)c2)oc2cc(O[C@@H]3O[C@H](CO)[C@@H](O)[C@H](O)[C@H]3O)cc(O)c12 [Luteolin-7-O-β-D-glucoside, luteolin-7-O-β-D-glucoside] |  | pIC50 [1]: <4 |
| O=c1c(O[C@@H]2O[C@H](CO)[C@@H](O)[C@H](O)[C@H]2O)c(-c2ccc(O)c(O)c2)oc2cc(O)cc(O)c12 [Quercetin-3-O-glucoside, quercetin-3-O-glucoside] | > 100000 nM |  |
| COc1cc(/C=C/C(=O)O)ccc1O [Ferulic acid, ferulic acid] |  | pIC50 [1]: <4 |
| O=C1C[C@@H](c2ccc(O)c(O)c2)Oc2cc(O)cc(O)c21 [Eriodictyol, eriodictyol] | > 100000 nM |  |
| O=C(O)[C@H]1O[C@@H](Oc2c(-c3ccc(O)c(O)c3)oc3cc(O)cc(O)c3c2=O)[C@H](O)[C@@H](O)[C@@H]1O [Quercetin-3-O-glucuronide, quercetin-3-O-glucuronide] |  | pIC50 [1]: <4 |
| catechin gallate [CG] |  | Inhibition mode [2]: non-competitive |
| O=c1c(O)c(-c2ccc(O)c(O)c2)oc2cc(O)cc(O)c12 [Quercetin, quercetin] |  | inhibitory effects against α-glucosidase (α-glucosidase): strong inhibitory effects |
| O=c1c(O)c(-c2ccc(O)cc2)oc2cc(O)cc(O)c12 [Kaempferol, kaempferol] | 27500 nM |  |
| O=C(O)/C=C/c1ccc(O)cc1 [p-coumaric acid] | > 100000 nM |  |
| C[C@@H]1O[C@@H](Oc2c(-c3ccc(O)c(O)c3)oc3cc(O)cc(O)c3c2=O)[C@H](O)[C@H](O)[C@H]1O [Quercitrin, quercitrin] | > 100000 nM |  |
